For series [1], the species on record is Rattus norvegicus. The series is described as follows: Compound was tested for anti-vasopressor activity against rat; Weak. It is filed as functional, organism-based.
For series [2], the species on record is Rattus norvegicus. The series is described as follows: Tested for anti-oxytocic activity against isolated rat uterus; Showed both agonistic and antagonistic activities. It is filed as functional.
For series [3], the species on record is Rattus norvegicus. The series can be described thus: The anti-oxytocic pA2 value (antagonistic) of compound was tested on isolated rat uterus (with the 0.5 mM Mg+2). The note with it: read-out: pA2 (converted). It is filed as functional.
For series [4], the species on record is Rattus norvegicus. The series is described as follows: Compound was tested for anti-vasopressor activity against rat. It is filed as functional, organism-based. The note with it: read-out: pA2 (converted).
The species entered for series [5] is Rattus norvegicus. The series can be described thus: Tested for anti-oxytocic activity against isolated rat uterus. It is filed as functional. Particulars: read-out: pA2 (converted).
The species named for series [6] is Rattus norvegicus. The series is described as follows: Tested for antidiuretic activity against rats. It is filed as functional, Urine.
The species named for series [7] is Rattus norvegicus. The series is described as follows: Compound was tested for anti-vasopressor activity against rat; Inhibitor. It is filed as functional, organism-based.
For series [8], the species on record is Rattus norvegicus. The series is described as follows: Compound was tested for antidiuretic activity in rats. It is filed as ADME, organism-based, Urine. Particulars: in vivo.
The species named for series [9] is Rattus norvegicus. The series can be described thus: The vasopressor value (agonistic) of compound was tested on rat […]. It is filed as functional.

The structures appear in SMILES notation. Where a SMILES comes first, the peptide text is derived from it. Bridges are numbered along the chain shown (N, C = ends).

As for `CC[C@H](C)[C@@H]1NC(=O)[C@@H](Cc2ccc(OC)cc2)NC(=O)[C@H](N)CSSC[C@@H](C(=O)N2CCC[C@@H]2C(=O)N[C@@H](CC(C)C)C(=O)NCC(N)=O)NC(=O)[C@H](CC(N)=O)NC(=O)[C@@H](CCC(N)=O)NC1=O`, the pA2 entry in the series listed under Rattus norvegicus [1] was “Weak”; in the series filed under Rattus norvegicus [2], “Mixed”.
Turning to `COc1ccc(C[C@@H]2NC(=O)[C@@H](NC(C)=O)CSSC[C@@H](C(=O)N3CCC[C@H]3C(=O)N[C@@H](CCCN=C(N)N)C(=O)NCC(N)=O)NC(=O)[C@H](CC(N)=O)NC(=O)[C@H](CCC(N)=O)NC(=O)[C@H](Cc3ccccc3)NC2=O)cc1` [listing 1 of 2 here], the figures for the Kb in the series filed under Rattus norvegicus [3], in the series listed under Rattus norvegicus [4] and in the series filed under Rattus norvegicus [5] were 186 nM, 66.1 nM and 51.3 nM, respectively.
The molecule `COc1ccc(C[C@@H]2NC(=O)[C@@H](NC(C)=O)CSSC[C@@H](C(=O)N3CCC[C@H]3C(=O)N[C@@H](CCCN=C(N)N)C(=O)NCC(N)=O)NC(=O)[C@H](CC(N)=O)NC(=O)[C@H](CCC(N)=O)NC(=O)[C@H](Cc3ccccc3)NC2=O)cc1` [listing 2 of 2 here] yielded an Antidiuretic in the series filed under Rattus norvegicus [6] of 0.026 U/mg.
Turning to `CC[C@H](C)[C@@H]1NC(=O)[C@H](Cc2ccc(OC)cc2)NC(=O)[C@@H](NC(N)=O)CSSC[C@@H](C(=O)N2CCC[C@H]2C(=O)N[C@@H](CC(C)C)C(=O)NCC(N)=O)NC(=O)[C@H](CC(N)=O)NC(=O)[C@H](CCC(N)=O)NC1=O`, the Kb in the series filed under Rattus norvegicus [5] was 60.3 nM.
Regarding `CC[C@H](C)[C@@H]1NC(=O)[C@@H](Cc2ccc(OC)cc2)NC(=O)[C@H](NC(C)=O)CSSC[C@@H](C(=O)N2CCC[C@@H]2C(=O)N[C@@H](CC(C)C)C(=O)NCC(N)=O)NC(=O)[C@H](CC(N)=O)NC(=O)[C@@H](CCC(N)=O)NC1=O`, the pA2 result in the series listed under Rattus norvegicus [7] is on record as “Inhibition”.
Consider `COc1ccc(C[C@@H]2NC(=O)[C@@H](N)CSSC[C@@H](C(=O)N3CCC[C@H]3C(=O)N[C@@H](CCCN=C(N)N)C(=O)NCC(N)=O)NC(=O)[C@H](CC(N)=O)NC(=O)[C@H](CCC(N)=O)NC(=O)[C@H](Cc3ccccc3)NC2=O)cc1` [listing 1 of 2 here], for which the results for the Kb in the series listed under Rattus norvegicus [3] and in the series listed under Rattus norvegicus [5] were 457 nM and 36.3 nM, respectively.
Turning to `NC(=O)CC[C@@H]1NC(=O)[C@H](Cc2ccccc2)NC(=O)[C@H](Cc2ccc(O)cc2)NC(=O)[C@@H](N)CSSC[C@@H](C(=O)N2CCC[C@H]2C(=O)N[C@@H](CCCN=C(N)N)C(=O)NCC(N)=O)NC(=O)[C@H](CC(N)=O)NC1=O` (stereo in doubt; form 1) [VASOPRESSIN], in the series filed under Rattus norvegicus [8], the Antidiuretic is 323 U/mg.
With `CC[C@H](C)[C@@H]1NC(=O)[C@H](Cc2ccc(OC)cc2)NC(=O)[C@@H](N)CSSC[C@@H](C(=O)N2CCC[C@H]2C(=O)N[C@@H](CC(C)C)C(=O)NCC(N)=O)NC(=O)[C@H](CC(N)=O)NC(=O)[C@H](CCC(N)=O)NC1=O`, the Antidiuretic in the series listed under Rattus norvegicus [6] worked out at 0.01 U/mg.
Take `CC[C@H](C)[C@@H]1NC(=O)[C@H](Cc2ccc(OC)cc2)NC(=O)[C@@H](NC(=O)CN)CSSC[C@@H](C(=O)N2CCC[C@H]2C(=O)N[C@@H](CC(C)C)C(=O)NCC(N)=O)NC(=O)[C@H](CC(N)=O)NC(=O)[C@H](CCC(N)=O)NC1=O` (H-GCY(Me)IQNCPLG-NH2; disulfide 2-7): in the series listed under Rattus norvegicus [5], the Kb is 141 nM.
Regarding `COc1ccc(C[C@@H]2NC(=O)[C@@H](N)CSSC[C@@H](C(=O)N3CCC[C@H]3C(=O)N[C@@H](CCCN=C(N)N)C(=O)NCC(N)=O)NC(=O)[C@H](CC(N)=O)NC(=O)[C@H](CCC(N)=O)NC(=O)[C@H](Cc3ccccc3)NC2=O)cc1` [listing 2 of 2 here], the Vasopressor activity in the series filed under Rattus norvegicus [9] was 9.7 units/mg. Moreover, in the series listed under Rattus norvegicus [6], the Antidiuretic turned out to be 386 U/mg.
Regarding `CC[C@H](C)[C@@H]1NC(=O)[C@@H](Cc2ccc(OC)cc2)NC(=O)[C@H](NC(N)=O)CSSC[C@@H](C(=O)N2CCC[C@@H]2C(=O)N[C@@H](CC(C)C)C(=O)NCC(N)=O)NC(=O)[C@H](CC(N)=O)NC(=O)[C@@H](CCC(N)=O)NC1=O`, the pA2 entry in the series listed under Rattus norvegicus [7] is given as “Inhibition”.
In the case of `CC[C@H](C)[C@@H]1NC(=O)[C@H](Cc2ccc(O)cc2)NC(=O)[C@@H](N)CSSC[C@@H](C(=O)N2CCC[C@H]2C(=O)N[C@@H](CC(C)C)C(=O)NCC(N)=O)NC(=O)[C@H](CC(N)=O)NC(=O)[C@H](CCC(N)=O)NC1=O` [OXYTOCIN], in the series listed under Rattus norvegicus [8], the Antidiuretic was 4 U/mg.
For the molecule `CC[C@H](C)[C@@H]1NC(=O)[C@H](Cc2ccc(OC)cc2)NC(=O)[C@@H](NC(=O)CNC)CSSC[C@@H](C(=O)N2CCC[C@H]2C(=O)N[C@@H](CC(C)C)C(=O)NCC(N)=O)NC(=O)[C@H](CC(N)=O)NC(=O)[C@H](CCC(N)=O)NC1=O`, the Kb in the series filed under Rattus norvegicus [5] is 302 nM.
Turning to `NC(=O)CC[C@@H]1NC(=O)[C@H](Cc2ccccc2)NC(=O)[C@H](Cc2ccc(O)cc2)NC(=O)[C@@H](N)CSSC[C@@H](C(=O)N2CCC[C@H]2C(=O)N[C@@H](CCCN=C(N)N)C(=O)NCC(N)=O)NC(=O)[C@H](CC(N)=O)NC1=O` (stereo in doubt; form 2) [VASOPRESSIN], the Antidiuretic in the series filed under Rattus norvegicus [8] is 212 U/mg.
As for `CC[C@H](C)[C@@H]1NC(=O)[C@H](Cc2ccc(OC)cc2)NC(=O)[C@@H](NC(C)=O)CSSC[C@@H](C(=O)N2CCC[C@H]2C(=O)N[C@@H](CC(C)C)C(=O)NCC(N)=O)NC(=O)[C@H](CC(N)=O)NC(=O)[C@H](CCC(N)=O)NC1=O`, the Kb in the series filed under Rattus norvegicus [5] is 26.3 nM.

(Values after ChEMBL document CHEMBL1121463, “N-Acetyl-[2-(O-methyl)tyrosine]arginine-vasopressin, an interesting antagonist of the vasopressor response to vasopressin” (J Med Chem, 1980).)
